Key:
[1] = system: synthesis of 5-HETE by rat glycogen-elicited polymorphonuclear leukocytes (lipoxygenase); assay: inhibition of 5-HETE synthesis by rat glycogen-elicited polymorphonuclear leukocytes; type: cell-based, rat (Wistar); conditions: Leukocyte; rat PMN, A23187 10 μM, [14C] arachidonic acid, 37° C.; read-out: 50% Inhibitory Concentration (IC50) 5-HETE
Protocol: (§1) This is especially true with respect to 5,12-diHETE, which is also denoted as LTB4 [see Ford-Hitchinson, J. Roy. Soc. Med., 74, 831 (1981)]. The assay of this Example measures the ability of the compounds of the invention to inhibit the synthesis of 5-HETE and LTB4 by rat glycogen-elicited polymorphonuclear leukocytes.
(§2) The assay is carried out as follows:
(§3) Peritoneal PMN are obtained from female Wistar rats (150-250 g) that received an i.p. injection of 6% glycogen (10 ml). After 24 hours, rats are killed by CO2 asphyxiation and peritoneal cells are harvested by peritoneal lavage using Ca^++ and Mg^++ free Hanks' balanced salt solution (HBSS). The peritoneal exudate is centrifuged at 400 g for 10 minutes. After centrifugation, the lavaged fluid is removed and the cell pellet is resuspended in HBSS containing Ca^++ and Mg^++ and 10 mM L-cysteine at a concentration of 2×10^7 cells/ml. To 1 ml portions of cell suspension, test drugs or vehicle are added and incubated at 37° C. for 10 minutes. Following this preincubation, the calcium ionophore (10 μM), A23187, is added together with 0.5 μCi [^14 C] arachidonic acid and further incubated for 10 minutes. The reaction is stopped by the addition of ice cold water (3 ml) and acidifying to pH 3.5. Lipoxygenase products are then extracted twice into diethyl ether. The pooled ether extracts are evaporated to dryness under nitrogen and the residue is redissolved in a small volume of methanol and spotted on aluminum backed pre-coated thin layer chromatographic plates. The samples are then co-chromatographed with authentic reference 5-HETE, 12-HETE and 5,12-diHETE in the solvent system-hexane:ether:acetic acid (50:50:3). After chromatography, the areas associated with 5-HETE and 5,12-diHETE standards are identified by autoradiography, cut out and quantitated by liquid scintillation.
(§4) Results are expressed as % inhibition of [^14 C]5-HETE and [^14 C]LTB4 (5,12-HETE) synthesis. [formula]
(§5) Testing compounds of the invention in this assay and using the antioxident 3-amino-1-[m-(trifluoromethyl)phenyl]-2-pyrazoline (BW755C) as a standard, the following results are obtained.

[2] = system: synthesis of LTB4 by rat glycogen-elicited polymorphonuclear leukocytes (lipoxygenase); assay: inhibition of LTB4 (5,12-diHETE) synthesis by rat glycogen-elicited polymorphonuclear leukocytes; type: cell-based, rat (Wistar); conditions: Leukocyte; rat PMN, A23187 10 μM, [14C] arachidonic acid, 37° C.; read-out: 50% Inhibitory Concentration (IC50) LTB4
Protocol: as §1, §2, §3, §4, §5

[3] = system: LTD4 induced bronchoconstriction; assay: in vivo inhibition of bronchospasm induced in guinea pigs by exogenously administered LTD4; design: species or system guinea pig (male Hartley); conditions: 50 mg/kg intraduodenal, 10 minutes before LTD4, average of 6 experiments
Protocol: The assay of this Example measures the in vivo ability of the compounds of the invention to inhibit the bronchospasm induced in guinea pigs by the exogenously administered leukotrienes C4 and/or D4. This assay is essentially a measure of the SRS-A antagonist properties of the compounds tested.
This assay is carried out as follows:
Male Hartley strain guinea pigs (350-600 g) are anesthetized with pentobarbital sodium (50 mg/kg, i.p.). The jugular vein is cannulated for injection of drugs and the carotid artery for monitoring blood prerssure. The trachea is cannulated for artificial ventilation by a miniature Starling pump and for indirect measurement of respiratory volume changes as described infra. Additional pentobarbital sodium (15 mg/kg, i.v.) is administered to arrest spontaneous respiration. Submaximal bronchoconstrictor responses are established in control animals by varying the dose-levels of leukotriene. Intravenous dose-levels of LTC4 range from 1 to 2 μg/kg and for LTD4 the range is from 0.3 to 1 μg/kg. The aerosol bronchoprovocation dose for LTC4 is generated from 1.6 μM solution and for LTD4 from a 2.0 μM solution.
Test drugs are administered either intravenously, by aerosol or orally at 1 or 10 minutes before induction of bronchospasm by administration of either LTC4 or LTD4 at the predetermined dose-levels. Aerosols of soluble drugs or leukotrienes are produced in-line for 10 seconds only by actuation of an ultrasonic nebulizer (Monaghan). Aerosolized drug dosage is expressed in terms of solution concentration and by a fixed aerosol exposure time (approximately 10 seconds). Control animals receive saline in place of drug.
Respiratory volume changes are determined by a calibrated piston whose travel is recorded, via a linear transducer, on a Beckman Dynograph recorder. Maximal bronchoconstrictor volume is determined by clamping off the trachea at the end of the experiment. Overflow volumes at 3 and 5 minutes are obtained from the recorded charts.
The overflow volume at 3 and 5 minutes is expressed as a percentage of maximal bronchoconstriction. Combined group values are used from each of these time intervals to determine the inhibitory effect of drugs. [formula] Students t-test for unpaired data is used to determine statistical significance. Dose response curves are generated and ED50 doses are interpolated from the regression lines.
Results for compounds of the invention in this assay, using LTD4 for induction of bronchospasm, are given below: […]

[4] = system: ovalbumin induced bronchospasm mediated by endogenous products of the lipoxygenase oxidation of arachidonic acid; assay: in vivo inhibition of ovalbumin induced bronchospasm in sensitized guinea pigs (endogenous mediators); design: species or system guinea pig (male Hartley); conditions: 50 mg/kg intraduodenal, 10 minutes before ovalbumin challenge, average of 6 experiments

| SMILES | IC50 [1] [µM] | IC50 [2] [µM] | % Inhibition (Statistical Average), Overflow Volume at 3 min. [3] [%] | % Inhibition (Statistical Average), Overflow Volume at 5 min. [3] [%] | % Inhibition (Statistical Average), Overflow Volume at 3 min. [4] [%] | % Inhibition (Statistical Average), Overflow Volume at 5 min. [4] [%] |
| --- | --- | --- | --- | --- | --- | --- |
| COC(=O)CCC(=O)Nc1cccc(OCc2cc3ccccc3o2)c1 [Example 3, 4-[[3-[(2-benzofuranyl)methoxy]phenyl]amino]-4-oxobutanoic acid, methyl ester] | 17.9 | 27.3 | – | – | – | – |
| COC(=O)CCC(=O)Nc1cccc(OCc2nc3ccccc3o2)c1 [Example 2a, 4-[[3-[(2-benzoxazolyl)methoxy]phenyl]amino]-4-oxobutanoic acid, methyl ester] | 69.7 | 65.5 | – | – | – | – |
| COC(=O)CCC(=O)N(O)c1cccc(OCc2nc3ccccc3s2)c1 [Example 6, 4-[[3-[(2-benzthiazolyl)methoxy]phenyl]hydroxylamino]-4-oxobutanoic acid, methyl ester] | 0.36 | 0.49 | 78 | 78 | – | – |
| COC(=O)CC(=O)Nc1cccc(OCc2nc3ccccc3n2C)c1 [Example 2d, 3-[[3-[(1-methyl-2-benzimidazolyl)methoxy]phenyl]amino]-3-oxopropanoic acid, methyl ester] | – | – | 62 | 59 | – | – |
| COC(=O)CCC(=O)Nc1cccc(OCc2nc3ccccc3n2C)c1 [Example 2b, 4-[[3-[(1-methyl-2-benzimidazolyl)methoxy]phenyl]amino]-4-oxobutanoic acid, methyl ester] | – | – | 82 | 82 | 54 | 49 |
| COC(=O)CCC(=O)Nc1cccc(OCc2nc3ccccc3s2)c1 [Example 1, 4-[[3-[(2-benzthiazolyl)methoxy]phenyl]amino]-4-oxobutanoic acid, methyl ester] | 15.7 | 26 | 33 | 41 | 68 | 49 |
| NC1=NN(c2cccc(C(F)(F)F)c2)CC1 [BW755C, 3-amino-1-[m-(trifluoromethyl)phenyl]-2-pyrazoline, reference compound] | 43 | 30 | – | – | – | – |
| COC(=O)CC(=O)Nc1cccc(OCc2nc3ccccc3s2)c1 [Example 2c, 3-[[3-[(2-benzthiazolyl)methoxy]phenyl]amino]-3-oxopropanoic acid, methyl ester] | – | – | 77 | 76 | – | – |

Source: patent publication US4594425A, “Heterocyclic compounds as antiallergic agents” (American Home Products Corporation, priority 1984, dated 1986)
